Results reported in patent publication US6395762B1, “Phenyl amino squarate and thiadiazole dioxide beta-3 adrenergic receptor agonists” (American Home Products Corporation, priority 2000, dated 2002).

How the values were obtained:
[1] = molecular target: T1, human β3-AR (Homo sapiens, UniProt P13945); assay: cAMP accumulation (SPA) in CHO cells transfected with human β3-AR; format: cell-based; conditions: CHO cells transfected with human β3-AR
T1 construct: Full-length β3-AR clones (402 amino acids) containing the last 6 amino acids of hβ3-AR; expressed in transfected cells; host or cells: CHO (Chinese hamster ovary) cells
Method: The ability of the compounds of this invention to treat or inhibit disorders related to insulin resistance or hyperglycemia was confirmed with representative compounds of this invention in the following standard pharmacological test procedures, which measured the binding selectivity of the β1-, β2-, and β3-AR. Binding to the receptors was measured in Chinese Hamster ovary (CHO) cells that were transfected with β1-, β2-, and β3-AR's. The following briefly summarizes the procedures used and results obtained.
Cloning of Human β3-AR Genomic DNA: cDNA was constructed by ligating four polymerase chain reaction (PCR) products using the following primers: an ATG-Narl fragment, sense primer 5′-[…]3′ and anti-sense primer 5′[…]3′; a Narl-Accl fragment, 5′[…]3′ as sense and 5′[…]3′ as anti-sense primer; an Accli—Styl fragment, sense primer 5′[…]3′ and anti-sense primer 5′[…]3′ and a Styl-TAG fragment, with sense primer 5′ […]3′ and anti-sense primer 5′ […]3′ . The corresponding primer sequences are described in Mantzoros, C. S., et.al., Diabetes, 1996, 45, 909-914. The four fragments are ligated into a pUC 18 plasmid (Gibco-BRL) and sequenced. Full-length β3-AR clones (402 amino acids) containing the last 6 amino acids of hβ3-AR are prepared with the β3-βARpcDNA3 from ATTC.
Binding Procedure: Clones expressing receptor levels of 70 to 110 fmoles/mg protein were used in the test procedures. CHO cells were grown in 24-well tissue culture plates in Dulbecco's Modified Eagle Media with 10% fetal bovine serum, MEM non-essential amino acids, Penicillin—Streptomycin and Geneticin. On the day of test procedure, growth medium was replaced with preincubation media (Dulbecco's Modified Eagle Media) and incubated for 30 minutes at 37° C. Pre-incubation medium was replaced with 0.2 ml treatment medium containing DMEM media containing 250 μM IBMX (isobutyl-1-methylxantine) plus 1 mM ascorbic acid with test compound dissolved in DMSO. Test compounds were assayed over a concentration range of 10^−9 M to 10^−5 M for β3-AR transfected cells and 10^−8 to 10^−4 M for β1-AR and β2-AR transfected cells. Isoproterenol (10^−5 M) was used as an internal standard for comparison of activity. Cells were incubated at 37° C. on a rocker for 30 min with the β3-AR transfected cells and 15 min with β1-AR and β2-AR transfected cells. Incubation was stopped by the addition of 0.2N HCl and the acid was neutralized with 2.5N NaOH. The plates, containing the cells and neutralized media, were stored at −20° C. until ready to test for cAMP using the SPA test kit (Amersham).
Data Analysis and Results: Data collected from the SPA test procedure were analyzed as percent of the maximal isoproterenol response at 10^−5 M. Activity curves were plotted using the SAS statistical and graphics software.

T1 sequence (P13945 whole entry): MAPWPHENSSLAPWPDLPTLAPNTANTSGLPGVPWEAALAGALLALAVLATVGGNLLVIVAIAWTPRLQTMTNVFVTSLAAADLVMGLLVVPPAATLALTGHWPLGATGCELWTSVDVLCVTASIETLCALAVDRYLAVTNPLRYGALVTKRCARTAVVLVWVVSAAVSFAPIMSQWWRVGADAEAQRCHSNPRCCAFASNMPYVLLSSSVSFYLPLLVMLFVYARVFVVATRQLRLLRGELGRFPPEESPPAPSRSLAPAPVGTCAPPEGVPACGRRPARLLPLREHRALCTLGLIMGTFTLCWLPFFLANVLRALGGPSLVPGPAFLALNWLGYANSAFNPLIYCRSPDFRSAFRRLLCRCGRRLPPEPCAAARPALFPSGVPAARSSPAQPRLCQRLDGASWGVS

CCCCCCCCNC1=NS(=O)(=O)N=C1Nc1ccc(CC(C)NC[C@H](O)COc2ccc3c(c2)OCO3)cc1 (stereo partly drawn) [Compound 35, (2S)-1-(1,3-Benzodioxol-5-yloxy)-3-{1-methyl-2-[4-(4-octylamino-1,1-dioxo-1H-1.lambda(6).-[1,2,5]thiadiazol-3-ylamino)-phenyl]-ethylamino}-propan-2-ol]
melting point: 81 to 86 °C | EC50 ([1]; cAMP by SPA, 30 min at 37° C., 10^−9 M to 10^−5 M, read-out: EC50(β3)): 125 nM | IA(β3) ([1]; maximal response of compound relative to maximal response of isoproterenol at 10^−5 M): 0.51
